From patent US8709764B2, “Enzymatic demethylation of flavonoids” (Universiteit Gent, priority 2005, dated 2014)

Tests used:
[1] = system: fecal culture B supplemented with E. limosum; assay: Supplementation of selected E. limosum strain to non-converting fecal culture B incubated with IX; type: in vitro ADME, human; conditions: 8-PN concentration day one versus day seven
Experimental: The most efficient E. limosum strain, obtained from the selection experiment in example 2, was supplemented to the originally non-converting culture B of example 1, to examine the capacity of this strain to initiate the production of 8-PN in the complex environment of a fecal suspension. The strain was added to the culture in proportions ranging from 0% up to 100% (v/v). This mixture was incubated with 10% (v/v) of 25 mg/L IX for a period of seven days in Brain Heart Infusion broth (with 0.5 g/l cystein-HCl) under anaerobic conditions. The concentration of 8-PN was monitored every two days (FIG. 7).

[2] = cited from earlier work
[3] = system: Eubacterium limosum ATCC 8486; assay: Incubation of IX and 8-PN with Eubacterium limosum for 13 days; type: in vitro ADME; conditions: E. limosum, 8-PN as substrate, 13 days
Experimental: Eubacterium limosum ATCC 8486 and Peptostreptococcus productus ATCC 27340 were obtained from the German Collection of Microorganisms and Cell Cultures (DSMZ, Braunschweig, Germany). E. limosum was incubated for 13 days in Brain Heart Infusion broth (with 0.5 g/l cystein-HCl) with 25 mg/l of IX and 8-PN under anaerobic conditions (Table 2). This strain was able to convert IX into 8-PN. […] This feature is clearly different from the metabolic pathway as observed in liver microsomes wherein 8-PN is extensively further metabolised [Nikolic et al. (2005) J. of Mass Spectrom. 40, 289-299; Nikolic et al. (2004) Drug Metabolism and Disposition 32, 272-279].

[4] = Incubation of X or IX with human fecal cultures A-D for 8 days, conversion products detected by HPLC; type: in vitro ADME; conditions: human, 25 mg/l substrate, 8 days anaerobic, average (stdev) molar percentage relative to dosed flavonoid
Experimental: (§1) Fecal slurries of 20% (w/v) fresh fecal samples were prepared by homogenizing the feces with phosphate buffered saline (0.1 M, pH 7) containing 1 g/l sodiumthioglycolate as reducing agent. The particulate material was removed by centrifugation (1 min, 500×g). The supernatant is hereafter called “the culture”.
(§2) The capacity of the cultures obtained from fecal samples A, B, C and D (further referred as cultures A-D) to degrade or transform the hop prenylflavonoid IX was tested by incubating the fecal cultures (10% (v/v)) in Brain Heart Infusion broth (with 0.5 g/l cystein-HCl) with 25 mg/l of isoxanthohumol for a period of 8 days under anaerobic conditions. Extracts of the incubations at days 0 and 8 were assayed for bioactive transformation products of IX using a Yeast Estrogenic Screen, according to De Boever et al. (2001) Env. Health Perspectives 109, 691-697, based on Routledge & Sumpter (1996) Environ. Toxicol. Chem. 15, 241-248. In brief, Saccharomyces cerevisiae, was transformed with the human estrogen receptor (ERα) gene, together with expression plasmids containing responsive elements and the lacZ reporter gene (encoding the enzyme β-galactosidase). β-galactosidase activity is quantified at 540 nm by the conversion of the chromogenic substance chlorophenol red-β-D-galactopyranoside into chlorophenol red. The bioassay response is expressed as the absorbance at 540 nm divided by the optical density at 630 nm [(A540/A630)net]. The estrogenic activity of the samples was expressed as percentage equivalence to 10 nM estradiol (E2) which elicited a 100% response in the estrogen receptor bioassay. The bioassays were performed in 96-well plates in which 10 μL of the test compounds were tested and incubated with 240 μL of the genetically modified yeast (optical density of 0.25 at 610 nm). Serial dilutions of the test compounds were made in dimethylsulfoxide, which allowed generating dose-response curves for […]. The data were fitted by a 4 parametric logistic model using the Marquardt-Levenberg algorithm (Sigmaplot 4.0, SPSS Inc., Chicago, Ill., USA) (De Boever et al. (2001) Env. Health Perspectives 109, 691-697).
(§3) To further test this transformation, cultures A-D (10% (v/v)) were incubated for 8 days in Brain Heart Infusion broth (with 0.5 g/l cystein-HCl) with either X or IX at a concentration of 25 mg/l under anaerobic conditions and conversion products were detected by HPLC (Table 1). […] However, in culture C almost 40% of 8-PN was recovered, which explains the increase in estrogenic properties of culture C.

[5] = system: human fecal cultures; assay: as above; type: in vitro ADME; conditions: all fecal samples A-D, also with autoclaved cultures (non-enzymatic isomerisation)
Experimental: as §1, §2, §3

[6] = rats, 1000 mg/kg body weight of X; cited from earlier work

Further degradation of 8-PN [3] | recovery at 8 days, 25 mg/l ([4]; human fecal culture A (10% v/v), fecal Sample A) | recovery at 8 days, 25 mg/l ([4]; human fecal culture B (10% v/v), fecal Sample B) | recovery at 8 days, 25 mg/l ([4]; human fecal culture C (10% v/v), fecal Sample C) | recovery at 8 days, 25 mg/l ([4]; human fecal culture D (10% v/v), fecal Sample D) | Conversion of X to IX [5] | Compound | Further conversion of 8-PN [1] | Concentration needed for harmful in-vivo activity [2] | Share of recovered flavonoids in feces that was unchanged X [6]
did not further degrade 8-PN |  |  |  |  |  | CC(C)=CCc1c(O)cc(O)c2c1O[C@H](c1ccc(O)cc1)CC2=O [8-PN, 8-prenylnaringenin] | No further conversion of 8-PN was detected | ~100 µg/mL | 
 | 74.9% | 80.5% | 73.6% | 65.4% | slightly converted to IX | COc1cc(O)c(CC=C(C)C)c(O)c1C(=O)/C=C/c1ccc(O)cc1 [X, 2′,4,4′-trihydroxy-3′-prenyl-6′-methoxychalcone] |  |  | 89%
